Experimental data taken from patent US9879059B2, “Tailoring multivalent interactions of biopolymers with a polyproline scaffold” (Agency for Science, Technology and Research, priority 2013, dated 2018).

Legend:
[1] = target: nerve growth factor (NGF) (Homo sapiens, UniProt P01138); assay: ELISA of NGF binding to immobilized biotinylated glycopeptides; conditions: relative to glycopeptide 1
Experimental: The new plate was rinsed three times with PBS containing 0.05% Tween 20 and one time with PBS before the experiment. 100 μL of biotinylated glycopeptide solutions (0.5 μM) were added to required wells in the Pierce Streptavidin Coated High Binding Capacity plates (#15501), and incubated overnight at room temperature. After immobilization of glycopeptides, the plates were rinsed three times with PBS containing 0.05% Tween 20 and one time with PBS. The surface was then blocked with 125 μL of 3% BSA in PBS for 1 hr, followed by rinsing three times with PBS containing 0.05% Tween 20 and one time with PBS. 100 μL of varying concentrations (0 nM, 10 nM, 20 nM, 30 nM, 40 nM, 50 nM and 60 nM) of NGF in PBS containing 1% BSA was added to the wells and incubated for 2 hrs at 37° C. […]
The wells were then incubated with anti-NGF labeled with HRP in PBS containing 1% BSA. Absorbance signal was then developed with 100 μL of TMB Substrate from Thermo Scientific Pierce (#0034021) for 20 to 30 min before quenching with 100 μL of 2M H2SO4. Absorbance at 450 nm was then measured.
To evaluate the ability of the glycopeptides to interact with protein receptors, the binding affinity of each agent with nerve growth factor (NGF), which is known to bind CS-E sulfation motif selectively,^[9] was examined by ELISA. […] The amount of glycopeptide-bound NGF was measured by HRP-conjugated polyclonal NGF antibody.

[2] = target: NGF (Homo sapiens, UniProt P01138)
Experimental: Affinity measurements were performed using a Biacore T100 system (GE Heathcare). The CM5 sensor chip was used for all measurements. At first, the instrument was primed with HBS-EP+ (GE Heathcare) buffer. Then, 700RU of streptavidin was immobilized on all flow cells. A 1:1 mixture of 0.4 M EDC and 0.1 M NHS was used to activate the flow cells, and 0.008 mg/mL streptavidin solution reconstituted in Acetate 5.0 buffer (GE Healthcare) was injected. Blocking of the remaining activated groups was done with a 1 M solution of ethanolamine (pH 8.5). Flow cell 1 (or 3) was used as a reference to subtract nonspecific binding, drift, and the bulk refractive index, while flow cell 2 (or 4) was further immobilized with glycol-peptide samples of varying structures. Biotinylated glycopeptides (20 nM) were dissolved in HBS-EP+ buffer and were injected to flow cell 2 (or 4) at 30 μL/min until the baseline response increased by 104 or 127 RU. The instrument was then primed using running buffer (HBS-EP+). NGF was dissolved in HBS-EP+ buffer to produce a 185 nM stock solution, which was serially diluted to produce a concentration series down to 11 nM. […] Flow cells were regenerated by 2.5 M MgCl2 at 30 μL/min for 30 seconds after injection of each protein solutions.
Surface plasmon resonance (SPR) technology was further employed to facilitate quantitative, real-time kinetic analysis of glycopeptide-NGF interaction. Streptavidin was coated on a carboxydextran CM5 sensor chip, using EDC/NHS coupling chemistry, at a relatively low density (≈700 RU) to prevent nonspecific interactions with NGF. Biotinylated glycopeptides were then immobilized on streptavidin-coated surface at normalized levels by molecular weights,^[12] […] Kinetics were monitored at 25° C. by injecting various concentrations of NGF (11-185 nM) over the surface for 240 s at 50 μL·min^−1 and recording the dissociation for 800 s before the surface was regenerated with 2.5 M solution of MgCl2. […] Further kinetic analysis was conducted using a two-state binding model for comprehensive understanding of this binding event.

[3] = test system: PC12 cells
Experimental: Rat pheochromocytoma (PC12) cells were maintained in T75 tissue culture flask in complete RPMI 1640 growth medium containing 10% heat-inactivated horse serum (HI-HS), 5% fetal bovine serum (FBS) and 1% penicillin/streptomycin. Stock cultures from liquid nitrogen were grown at 37° C. with 5% CO2 in a humidified chamber for 72 hr before experiments.
13 mm glass coverslips were submerged in 65% nitric acid for at least three days. The coverslips were washed with distilled water, 70% ethanol and 100% ethanol 3× each for 30 minutes with gentle rocking. The coverslips were dried in the cell culture hood overnight with UV sterilization. For coating, 60 μl of laminin solution (25 μg/ml in sterile PBS) was added to each coverslip, followed by 2 hr incubation at 37° C. The coverslips were rinsed 3× with PBS and dried in the hood before use.
PC12 cells were seeded on laminin-coated coverslips at a density of 100 cells/mm^2 in RPMI 1640 differentiation medium containing 1% HI-HS. Cells were allowed to attach to the surface for 1 hr at 37° C. The coverslips were transferred to 24-well plates and the cells were incubated with fresh differentiation medium for 1 hr. Glycopeptides were incubated with NGF in differentiation medium for 1 hr at room temperature before adding to the cells together. At the end of culture period, the cells were fixed with 4% formaldehyde solution for 15 minutes at room temperature and rinsed 2× with PBS. All experiments were repeated three times and done in duplicate each time. For each treatment, 400-500 randomly selected single cells were counted. The percentage of neurite-bearing cells was determined by counting the number of cells with neurite length at least one cell body long.

[4] = test system: TrkA; conditions: 10 μM glycopeptide 1 hr, NGF 4 ng/ml 5 minutes, ratio phospho-TrkA to total TrkA
Experimental: PC12 cells were seeded on laminin-coated coverslips at a density of 300 cells/mm^2 and one coverslip was used for each treatment (˜40,000 cells in total). Cells were starved in differentiation medium for 12-18 hr before use. For glycopeptide treatment, cells were incubated with fresh differentiation medium containing 10 μM glycopeptide for 1 hr at 37° C. To induce TrkA phosphorylation, cells were treated with NGF at a final concentration of 4 ng/ml for 5 minutes at 37° C. Cells were washed with ice cold PBS and lysed using RIPA lysis buffer containing protease and phosphatase inhibitors. The protein samples were separated on 4-12% SDS-PAGE gel and transferred to nitrocellulose membrane. Membranes were blocked for 1 h at room temperature and probed with anti-TrkA Ab (1:1500) and anti-pTrkA Ab (1:1500) overnight at 4° C., followed by 2 hr incubation with horseradish peroxidase-conjugated secondary antibodies. Enhanced chemiluminescence system was used for detection. The bands were quantified using the ImageJ program and the ratio of phosphor-TrkA to total TrkA was calculated and expressed as arbitrary units (a.u.).

[5] = two-state kinetic model, 25° C., NGF 11-185 nM

Chain of NGF (P01138 122-241, species assumed): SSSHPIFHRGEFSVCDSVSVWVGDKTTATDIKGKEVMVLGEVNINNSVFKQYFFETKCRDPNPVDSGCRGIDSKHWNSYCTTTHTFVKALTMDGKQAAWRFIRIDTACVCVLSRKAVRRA
Chain of nerve growth factor (NGF) (P01138 122-241, species assumed): as above

With COC(=O)[C@@H]1C[C@@H](n2cc(CO[C@@H]3O[C@H](COS(=O)(=O)O)[C@H](OS(=O)(=O)O)[C@H](O[C@@H]4O[C@H](C(=O)O)[C@@H](O)[C@H](O)[C@H]4O)[C@H]3NC(C)=O)nn2)CN1C(=O)[C@@H]1CCCN1C(=O)[C@@H]1CCCN1C(=O)[C@@H]1C[C@@H](n2cc(CO[C@@H]3O[C@H](COS(=O)(=O)O)[C@H](OS(=O)(=O)O)[C@H](O[C@@H]4O[C@H](C(=O)O)[C@@H](O)[C@H](O)[C@H]4O)[C@H]3NC(C)=O)nn2)CN1C(=O)[C@@H]1CCCN1C(=O)[C@@H]1CCCN1C(=O)[C@@H]1C[C@@H](n2cc(CO[C@@H]3O[C@H](COS(=O)(=O)O)[C@H](OS(=O)(=O)O)[C@H](O[C@@H]4O[C@H](C(=O)O)[C@@H](O)[C@H](O)[C@H]4O)[C@H]3NC(C)=O)nn2)CN1C(=O)[C@@H]1CCCN1C(=O)[C@@H]1CCCN1C(=O)[C@@H]1C[C@@H](n2cc(CO[C@@H]3O[C@H](COS(=O)(=O)O)[C@H](OS(=O)(=O)O)[C@H](O[C@@H]4O[C@H](C(=O)O)[C@@H](O)[C@H](O)[C@H]4O)[C@H]3NC(C)=O)nn2)CN1C(=O)[C@@H]1CCCN1C(=O)[C@@H]1CCCN1C(=O)[C@@H]1C[C@@H](n2cc(CO[C@@H]3O[C@H](COS(=O)(=O)O)[C@H](OS(=O)(=O)O)[C@H](O[C@@H]4O[C@H](C(=O)O)[C@@H](O)[C@H](O)[C@H]4O)[C@H]3NC(C)=O)nn2)CN1C(=O)[C@@H]1CCCN1C(=O)[C@@H]1CCCN1C(=O)[C@@H]1C[C@@H](n2cc(CO[C@@H]3O[C@H](COS(=O)(=O)O)[C@H](OS(=O)(=O)O)[C@H](O[C@@H]4O[C@H](C(=O)O)[C@@H](O)[C@H](O)[C@H]4O)[C@H]3NC(C)=O)nn2)CN1C(=O)[C@@H]1CCCN1C(=O)[C@@H]1CCCN1C(=O)[C@@H]1C[C@@H](n2cc(CO[C@@H]3O[C@H](COS(=O)(=O)O)[C@H](OS(=O)(=O)O)[C@H](O[C@@H]4O[C@H](C(=O)O)[C@@H](O)[C@H](O)[C@H]4O)[C@H]3NC(C)=O)nn2)CN1C(=O)[C@@H]1CCCN1C(=O)[C@@H]1CCCN1C(=O)[C@@H]1C[C@@H](n2cc(CO[C@@H]3O[C@H](COS(=O)(=O)O)[C@H](OS(=O)(=O)O)[C@H](O[C@@H]4O[C@H](C(=O)O)[C@@H](O)[C@H](O)[C@H]4O)[C@H]3NC(C)=O)nn2)CN1C(=O)[C@@H]1CCCN1C(=O)[C@@H]1CCCN1C(=O)[C@@H]1C[C@@H](n2cc(CO[C@@H]3O[C@H](COS(=O)(=O)O)[C@H](OS(=O)(=O)O)[C@H](O[C@@H]4O[C@H](C(=O)O)[C@@H](O)[C@H](O)[C@H]4O)[C@H]3NC(C)=O)nn2)CN1C(=O)[C@@H]1CCCN1C(=O)[C@@H]1CCCN1C(=O)[C@@H]1C[C@@H](n2cc(CO[C@@H]3O[C@H](COS(=O)(=O)O)[C@H](OS(=O)(=O)O)[C@H](O[C@@H]4O[C@H](C(=O)O)[C@@H](O)[C@H](O)[C@H]4O)[C@H]3NC(C)=O)nn2)CN1C(=O)[C@@H]1CCCN1C(=O)[C@@H]1CCCN1C(=O)[C@@H]1C[C@@H](n2cc(CO[C@@H]3O[C@H](COS(=O)(=O)O)[C@H](OS(=O)(=O)O)[C@H](O[C@@H]4O[C@H](C(=O)O)[C@@H](O)[C@H](O)[C@H]4O)[C@H]3NC(C)=O)nn2)CN1C(=O)[C@@H]1CCCN1C(=O)[C@@H]1CCCN1C(=O)[C@@H]1C[C@@H](n2cc(CO[C@@H]3O[C@H](COS(=O)(=O)O)[C@H](OS(=O)(=O)O)[C@H](O[C@@H]4O[C@H](C(=O)O)[C@@H](O)[C@H](O)[C@H]4O)[C@H]3NC(C)=O)nn2)CN1C(=O)[C@@H]1CCCN1C(=O)[C@@H]1CCCN1C(=O)CCOCCOCCOCCOCCOCCOCCOCCOCCOCCOCCOCCOCCNC(=O)CCCC[C@@H]1SC[C@@H]2NC(=O)N[C@@H]21 [Glycopeptide 5] the “increase in NGF binding affinity in comparison to 1 (ELISA)” value [1] was 4.6 fold, the “binds to NGF more strongly than agent 1 (comparison of KD values)” value ([2]; KD of 5 versus KD of 1) was “approximately 18 fold” and the “SPR overall response to NGF” value ([2]; compared with glycopeptide 1, result in words) was “higher overall responses”. The ka2 [2, 5] was 1.97 (±0.02) × 10^−3 M^−1s^−1, the kd1 [2, 5] was 2.74 (±0.04) × 10^−2 s^−1 and the kd2 [2, 5] was 6.00 (±0.17) × 10^−4 s^−1. For the same molecule, the ka1 ([2]; two-state kinetic model, 25° C., NGF 11-185 nM, standard errors in parentheses) was 4.65 (±0.16) × 10^4 M^−1s^−1, the “percentage of neurite-bearing cells” value ([3]; 4 ng/ml NGF and 10 μM glycopeptide 3 days, 2 ng/ml NGF and 6 μM glycopeptide 5 days, result in words) was “greatly increased” and the “effect on NGF-mediated neurite outgrowth” value ([3]; NGF 4 ng/ml, glycopeptide 10 μM, 72 hr, compared to NGF-only control) was “significantly promoted neurite outgrowth”. For the same molecule, the “PC12 cell morphology with glycopeptide only” value ([3]; in the absence of NGF) was “remained round-shaped and undifferentiated” and the “increase of NGF-induced TrkA phosphorylation compared to control” value [4] was roughly 40%.
